Source: the NIST ThermoML archive (doi:10.1007/s10765-016-2061-1)

Conditions: Liquid, Vibrating tube method

CCF [fluoroethane]
Conditions | mass density [kg/m3]
283.5 K, 49990 kPa | 805.67
283.5 K, 60000 kPa | 816.48
283.5 K, 69990 kPa | 826.06
283.5 K, 79970 kPa | 834.87
283.5 K, 90040 kPa | 843.3
283.51 K, 10000 kPa | 747.35
283.51 K, 15000 kPa | 756.91
283.51 K, 20000 kPa | 765.51
283.51 K, 25000 kPa | 773.62
283.51 K, 30000 kPa | 780.86
283.51 K, 40000 kPa | 794.13
283.51 K, 100000 kPa | 851.08
283.52 K, 1000 kPa | 727.11
283.52 K, 3000 kPa | 731.96
283.52 K, 4990 kPa | 736.6
293.2 K, 1010 kPa | 706.97
293.2 K, 3010 kPa | 712.87
293.21 K, 5010 kPa | 718.27
293.21 K, 10010 kPa | 730.51
293.21 K, 15010 kPa | 741.15
293.21 K, 20000 kPa | 750.65
293.21 K, 25010 kPa | 759.29
293.21 K, 30010 kPa | 767.25
293.21 K, 70000 kPa | 815.59
293.21 K, 80000 kPa | 825
293.22 K, 40010 kPa | 781.39
293.22 K, 50000 kPa | 793.87
293.22 K, 60000 kPa | 805.15
293.22 K, 90000 kPa | 833.51
293.22 K, 99990 kPa | 841.66
303.23 K, 3010 kPa | 692.69
303.23 K, 5010 kPa | 699.12
303.23 K, 10000 kPa | 713.26
303.23 K, 15000 kPa | 725.31
303.23 K, 20010 kPa | 735.85
303.23 K, 30000 kPa | 753.95
303.24 K, 25010 kPa | 745.33
303.24 K, 40010 kPa | 769.21
303.24 K, 50000 kPa | 782.6
303.24 K, 60000 kPa | 794.39
303.24 K, 70000 kPa | 805.57
303.24 K, 80000 kPa | 815.36
303.25 K, 90000 kPa | 824.43
303.25 K, 100000 kPa | 832.9
313.14 K, 3000 kPa | 669.48
313.14 K, 5000 kPa | 677.22
313.14 K, 10000 kPa | 694
313.14 K, 15000 kPa | 707.5
313.15 K, 20000 kPa | 719.54
313.15 K, 25000 kPa | 729.96
313.15 K, 30010 kPa | 739.29
313.15 K, 40000 kPa | 755.43
313.15 K, 50000 kPa | 770.06
313.15 K, 60000 kPa | 782.28
313.15 K, 70000 kPa | 794.18
313.15 K, 80000 kPa | 804.63
313.16 K, 90000 kPa | 814.08
313.16 K, 100000 kPa | 822.46
323 K, 3000 kPa | 644.53
323 K, 5000 kPa | 654.18
323 K, 10000 kPa | 673.87
323 K, 15000 kPa | 689.57
323 K, 20000 kPa | 702.96
323 K, 25000 kPa | 714.54
323 K, 90000 kPa | 804.1
323.01 K, 30000 kPa | 724.71
323.01 K, 40000 kPa | 742.42
323.01 K, 50000 kPa | 757.67
323.01 K, 60000 kPa | 770.9
323.01 K, 69990 kPa | 783.33
323.01 K, 80000 kPa | 794.16
323.01 K, 100000 kPa | 813.21
332.98 K, 3000 kPa | 616.38
332.98 K, 5000 kPa | 628.96
332.98 K, 10010 kPa | 653.01
332.98 K, 50000 kPa | 745.52
332.98 K, 60000 kPa | 759.62
332.99 K, 15000 kPa | 671.15
332.99 K, 20010 kPa | 686.12
332.99 K, 25000 kPa | 698.88
332.99 K, 29990 kPa | 710.09
332.99 K, 39990 kPa | 729.27
332.99 K, 69990 kPa | 772.51
332.99 K, 80010 kPa | 783.85
332.99 K, 90000 kPa | 794.07
332.99 K, 100000 kPa | 803.45
342.85 K, 3000 kPa | 582.54
342.85 K, 5000 kPa | 600.31
342.85 K, 10000 kPa | 630.51
342.85 K, 15000 kPa | 651.87
342.85 K, 20000 kPa | 668.76
342.85 K, 25000 kPa | 682.96
342.85 K, 30000 kPa | 695.28
342.85 K, 40000 kPa | 716.03
342.85 K, 60000 kPa | 748.38
342.86 K, 50010 kPa | 733.53
342.86 K, 70000 kPa | 762.03
342.86 K, 79990 kPa | 773.74
342.86 K, 90010 kPa | 784.53
342.87 K, 100000 kPa | 794.42
352.86 K, 5000 kPa | 566.12
352.86 K, 10000 kPa | 606.19
352.86 K, 15000 kPa | 631.59
352.86 K, 19990 kPa | 650.88
352.86 K, 25000 kPa | 666.7
352.86 K, 29990 kPa | 680.18
352.86 K, 39990 kPa | 702.62
352.86 K, 50000 kPa | 721.07
352.86 K, 59990 kPa | 736.86
352.86 K, 70000 kPa | 751.19
352.86 K, 79990 kPa | 763.56
352.86 K, 90000 kPa | 774.75
352.87 K, 99990 kPa | 785.11
362.79 K, 4990 kPa | 521.7
362.79 K, 10000 kPa | 579.49
362.8 K, 15000 kPa | 610.29
362.8 K, 19990 kPa | 632.41
362.8 K, 24990 kPa | 650.04
362.8 K, 30000 kPa | 664.91
362.8 K, 40000 kPa | 689.17
362.8 K, 49990 kPa | 708.84
362.81 K, 59990 kPa | 725.55
362.81 K, 70000 kPa | 740.64
362.81 K, 80000 kPa | 753.56
362.81 K, 90000 kPa | 765.31
362.81 K, 99990 kPa | 775.91
